Measurements: patent US12617758B2, “Quinazoline derivative having FLT3 inhibitory activity, and use thereof” (INDUSTRY-UNIVERSITY COOPERATION FOUNDATION HANYANG …, priority 2020, dated 2026)
Read-outs that look alike come from different tables or passages of the source.

Experiments:
Type in all cases: biochemical
LYN = LYN (Homo sapiens, UniProt P07948); test: Kinase panel screening; details: single dose of 10 μM, read-out: % inhibition rate
c-Src = c-Src (Homo sapiens, UniProt P12931); test: Kinase panel screening; details: single dose of 10 μM, read-out: % inhibition rate
FLT3 (F594_R595 ins EY) = FLT3 (F594_R595 ins EY) (Homo sapiens, UniProt P36888, INS594EY); test: Inhibitory activity against FLT3 mutants; details: insertion of 2 amino acids
Excerpt: (§1) Subsequently, the inhibitory activity of Compound 7d against other different FLT3 mutants was additionally investigated and is shown in Table 2. […] Further, Compound 7d was also strong against FLT3 mutations located in the TKD.

FLT3 (F594_R595 ins R) = FLT3 (F594_R595 ins R) (Homo sapiens, UniProt P36888, INS594R); test: Inhibitory activity against FLT3 mutants; details: insertion of 1 amino acid
Excerpt: as §1

[1] = target: FLT3 (Y591_V592 ins VDFREYEYD) (Homo sapiens, UniProt P36888, INS591VDFREYEYD); test: Inhibitory activity against FLT3 mutants; details: insertion of 9 amino acids
Excerpt: as §1

FLT3 (D835Y) = FLT3 (D835Y) (Homo sapiens, UniProt P36888, D835Y); test: Inhibitory activity against FLT3 mutants
Excerpt: as §1

PKA = PKA (Homo sapiens, UniProt P17612); test: Kinase panel screening; details: single dose of 10 μM, read-out: % inhibition rate
CAMKK1 = CAMKK1 (Homo sapiens, UniProt Q8N5S9); test: Kinase panel screening; details: single dose of 10 μM, read-out: % inhibition rate
FYN = FYN (Homo sapiens, UniProt P06241); test: Kinase panel screening; details: single dose of 10 μM, read-out: % inhibition rate
FMS = FMS (Homo sapiens, UniProt P07333); test: Kinase panel screening; details: single dose of 10 μM, read-out: % inhibition rate
BTK = BTK (Homo sapiens, UniProt Q06187); test: Kinase panel screening; details: single dose of 10 μM, read-out: % inhibition rate
FGFR3 = FGFR3 (Homo sapiens, UniProt P22607); test: Kinase panel screening; details: single dose of 10 μM, read-out: % inhibition rate
P38a/MAPK14 = P38a/MAPK14 (Homo sapiens, UniProt Q16539); test: Kinase panel screening; details: single dose of 10 μM, read-out: % inhibition rate
ABL1 = ABL1 (Homo sapiens, UniProt P00519); test: Kinase panel screening; details: single dose of 10 μM, read-out: % inhibition rate
IGF1R = IGF1R (Homo sapiens, UniProt P08069); test: Kinase panel screening; details: single dose of 10 μM, read-out: % inhibition rate
ALK = ALK (Homo sapiens, UniProt Q9UM73); test: Kinase panel screening; details: single dose of 10 μM, read-out: % inhibition rate
FLT1/VEGFR1 = FLT1/VEGFR1 (Homo sapiens, UniProt P17948); test: Kinase panel screening; details: single dose of 10 μM, read-out: % inhibition rate
PLK1 = PLK1 (Homo sapiens, UniProt P53350); test: Kinase panel screening; details: single dose of 10 μM, read-out: % inhibition rate
JAK3 = JAK3 (Homo sapiens, UniProt P52333); test: Kinase panel screening; details: single dose of 10 μM, read-out: % inhibition rate
c-Kit = c-Kit (Homo sapiens, UniProt P10721); test: Kinase panel screening; details: single dose of 10 μM
AXL (R499C) = AXL (R499C) (Homo sapiens, UniProt P30530, R499C); test: Kinase panel screening; details: single dose of 10 μM, read-out: % inhibition rate
JNK3 = JNK3 (Homo sapiens, UniProt P53779); test: Kinase panel screening; details: single dose of 10 μM, read-out: % inhibition rate
FLT (ITD) = target: T1, FLT (ITD) (Homo sapiens, UniProt P36888); test: FLT (ITD) enzyme activity (IC50)
T1 sequence (P36888 1-993): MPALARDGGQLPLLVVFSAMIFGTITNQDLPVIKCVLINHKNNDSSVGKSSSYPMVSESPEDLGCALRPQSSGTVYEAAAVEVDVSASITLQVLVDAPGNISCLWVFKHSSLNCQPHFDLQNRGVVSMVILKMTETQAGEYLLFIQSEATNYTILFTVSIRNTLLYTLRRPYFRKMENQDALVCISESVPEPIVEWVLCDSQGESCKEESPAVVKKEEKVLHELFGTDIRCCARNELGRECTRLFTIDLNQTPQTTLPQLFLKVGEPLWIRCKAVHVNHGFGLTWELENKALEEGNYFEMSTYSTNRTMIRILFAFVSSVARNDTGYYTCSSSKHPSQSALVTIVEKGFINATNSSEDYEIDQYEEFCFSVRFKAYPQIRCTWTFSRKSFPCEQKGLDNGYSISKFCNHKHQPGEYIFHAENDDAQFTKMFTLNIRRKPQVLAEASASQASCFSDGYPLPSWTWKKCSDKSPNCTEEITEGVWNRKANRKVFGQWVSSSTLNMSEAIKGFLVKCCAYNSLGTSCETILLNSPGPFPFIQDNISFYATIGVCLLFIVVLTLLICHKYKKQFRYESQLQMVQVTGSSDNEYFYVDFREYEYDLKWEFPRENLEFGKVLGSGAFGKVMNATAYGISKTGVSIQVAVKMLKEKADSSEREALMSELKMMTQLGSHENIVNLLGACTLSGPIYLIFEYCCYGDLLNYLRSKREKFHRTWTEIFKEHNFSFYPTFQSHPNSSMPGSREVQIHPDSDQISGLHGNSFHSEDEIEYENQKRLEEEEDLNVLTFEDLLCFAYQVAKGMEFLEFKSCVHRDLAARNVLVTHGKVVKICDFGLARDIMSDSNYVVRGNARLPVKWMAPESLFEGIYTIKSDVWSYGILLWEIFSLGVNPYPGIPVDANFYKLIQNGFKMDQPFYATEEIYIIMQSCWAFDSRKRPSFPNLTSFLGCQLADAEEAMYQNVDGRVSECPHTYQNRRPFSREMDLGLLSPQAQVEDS
Excerpt: Experimental Example 1. Measurement of FLT3 and FLT Enzyme Activity
Changes in FLT3 and FLT enzyme activities by treatment with the quinazoline derivatives of the following Table 1 according to the present invention were confirmed by IC50.

Aurora A = Aurora A (Homo sapiens, UniProt O14965); test: Kinase panel screening; details: single dose of 10 μM, read-out: % inhibition rate
MEK1 = MEK1 (Homo sapiens, UniProt Q02750); test: Kinase panel screening; details: single dose of 10 μM, read-out: % inhibition rate
MEK1, sequence (Q02750 whole entry, species assumed): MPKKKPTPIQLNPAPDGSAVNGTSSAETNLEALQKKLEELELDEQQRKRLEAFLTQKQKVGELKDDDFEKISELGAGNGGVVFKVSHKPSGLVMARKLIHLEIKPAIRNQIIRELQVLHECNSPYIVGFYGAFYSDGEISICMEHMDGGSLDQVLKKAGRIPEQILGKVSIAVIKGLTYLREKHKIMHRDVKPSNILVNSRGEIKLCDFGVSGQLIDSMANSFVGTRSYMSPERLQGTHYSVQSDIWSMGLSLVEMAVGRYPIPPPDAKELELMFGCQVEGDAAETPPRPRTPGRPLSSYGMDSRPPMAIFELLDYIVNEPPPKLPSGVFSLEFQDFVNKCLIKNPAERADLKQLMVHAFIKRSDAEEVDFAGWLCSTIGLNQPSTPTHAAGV

c-Kit, sequence (P10721 26-976): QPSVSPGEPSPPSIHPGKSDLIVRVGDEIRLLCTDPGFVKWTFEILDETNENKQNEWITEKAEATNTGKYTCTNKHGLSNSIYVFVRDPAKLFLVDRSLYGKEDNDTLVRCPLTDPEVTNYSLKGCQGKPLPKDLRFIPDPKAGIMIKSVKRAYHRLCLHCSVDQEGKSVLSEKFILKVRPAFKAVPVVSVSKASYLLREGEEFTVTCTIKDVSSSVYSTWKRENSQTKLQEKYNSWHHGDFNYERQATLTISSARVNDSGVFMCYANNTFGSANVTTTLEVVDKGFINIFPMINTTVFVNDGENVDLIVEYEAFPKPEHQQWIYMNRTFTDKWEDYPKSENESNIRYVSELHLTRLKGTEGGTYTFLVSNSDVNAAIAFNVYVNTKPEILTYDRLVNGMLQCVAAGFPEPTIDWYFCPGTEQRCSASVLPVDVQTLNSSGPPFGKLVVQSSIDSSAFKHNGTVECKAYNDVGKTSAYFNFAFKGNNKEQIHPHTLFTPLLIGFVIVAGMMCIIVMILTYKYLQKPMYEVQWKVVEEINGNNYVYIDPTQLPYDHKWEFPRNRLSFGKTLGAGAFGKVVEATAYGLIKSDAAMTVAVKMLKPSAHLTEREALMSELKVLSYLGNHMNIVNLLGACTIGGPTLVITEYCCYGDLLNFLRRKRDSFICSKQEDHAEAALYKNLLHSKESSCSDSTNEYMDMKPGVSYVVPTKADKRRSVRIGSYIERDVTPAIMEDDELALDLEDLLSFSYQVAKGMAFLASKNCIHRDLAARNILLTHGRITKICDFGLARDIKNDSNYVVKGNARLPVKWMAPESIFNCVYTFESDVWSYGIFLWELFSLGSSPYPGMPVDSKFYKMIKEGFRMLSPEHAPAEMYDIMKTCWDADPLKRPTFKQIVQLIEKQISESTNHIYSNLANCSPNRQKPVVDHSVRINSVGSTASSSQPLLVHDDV
CAMKK1, sequence (Q8N5S9 whole entry, species assumed): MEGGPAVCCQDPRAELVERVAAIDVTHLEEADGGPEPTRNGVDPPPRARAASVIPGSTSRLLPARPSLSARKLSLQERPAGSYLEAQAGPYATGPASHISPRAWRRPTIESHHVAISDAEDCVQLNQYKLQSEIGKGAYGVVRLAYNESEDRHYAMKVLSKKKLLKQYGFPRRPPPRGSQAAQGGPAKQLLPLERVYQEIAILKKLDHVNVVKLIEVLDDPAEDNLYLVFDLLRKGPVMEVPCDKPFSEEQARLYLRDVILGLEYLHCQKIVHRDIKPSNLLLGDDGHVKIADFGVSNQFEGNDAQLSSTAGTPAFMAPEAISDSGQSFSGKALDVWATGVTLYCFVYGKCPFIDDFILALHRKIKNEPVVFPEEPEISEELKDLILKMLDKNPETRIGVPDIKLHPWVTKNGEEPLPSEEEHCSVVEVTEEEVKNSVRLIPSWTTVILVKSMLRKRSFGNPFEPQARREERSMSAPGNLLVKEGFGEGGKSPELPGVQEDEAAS
AXL (R499C), sequence (P30530 26-894 R499C, species assumed): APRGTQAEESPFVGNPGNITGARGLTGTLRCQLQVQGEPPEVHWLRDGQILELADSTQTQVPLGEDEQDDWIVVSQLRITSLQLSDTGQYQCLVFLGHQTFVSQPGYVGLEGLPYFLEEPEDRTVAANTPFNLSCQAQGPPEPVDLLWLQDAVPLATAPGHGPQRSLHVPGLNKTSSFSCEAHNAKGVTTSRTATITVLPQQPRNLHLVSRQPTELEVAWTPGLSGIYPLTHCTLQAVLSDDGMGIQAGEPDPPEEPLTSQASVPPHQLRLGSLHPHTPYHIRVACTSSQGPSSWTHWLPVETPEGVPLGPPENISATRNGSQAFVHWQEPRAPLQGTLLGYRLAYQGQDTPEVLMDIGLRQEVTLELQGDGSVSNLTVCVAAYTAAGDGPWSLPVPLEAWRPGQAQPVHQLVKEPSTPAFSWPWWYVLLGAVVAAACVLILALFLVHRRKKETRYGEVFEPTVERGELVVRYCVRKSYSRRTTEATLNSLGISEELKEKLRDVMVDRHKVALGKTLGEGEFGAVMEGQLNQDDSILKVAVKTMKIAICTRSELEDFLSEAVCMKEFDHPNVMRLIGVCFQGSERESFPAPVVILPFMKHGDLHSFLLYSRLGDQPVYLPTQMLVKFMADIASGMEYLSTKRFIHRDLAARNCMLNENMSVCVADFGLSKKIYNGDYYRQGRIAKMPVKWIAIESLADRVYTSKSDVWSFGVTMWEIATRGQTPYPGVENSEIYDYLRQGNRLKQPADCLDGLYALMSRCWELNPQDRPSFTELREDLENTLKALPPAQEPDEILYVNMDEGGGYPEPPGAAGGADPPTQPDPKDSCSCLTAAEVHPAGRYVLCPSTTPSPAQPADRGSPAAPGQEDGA
LYN, sequence (P07948 whole entry, species assumed): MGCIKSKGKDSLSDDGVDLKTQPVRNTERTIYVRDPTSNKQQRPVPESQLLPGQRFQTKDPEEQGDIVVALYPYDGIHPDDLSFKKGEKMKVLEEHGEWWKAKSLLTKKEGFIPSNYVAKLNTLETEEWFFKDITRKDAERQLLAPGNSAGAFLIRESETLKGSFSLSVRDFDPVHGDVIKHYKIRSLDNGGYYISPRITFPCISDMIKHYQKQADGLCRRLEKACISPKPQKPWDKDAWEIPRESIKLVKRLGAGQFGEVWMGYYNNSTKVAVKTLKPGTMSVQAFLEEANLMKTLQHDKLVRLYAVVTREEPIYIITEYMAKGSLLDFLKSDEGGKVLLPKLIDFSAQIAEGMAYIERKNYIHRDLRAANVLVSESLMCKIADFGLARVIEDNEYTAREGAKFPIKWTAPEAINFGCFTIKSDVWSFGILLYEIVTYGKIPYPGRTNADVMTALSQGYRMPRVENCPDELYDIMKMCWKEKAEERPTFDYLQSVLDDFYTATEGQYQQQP
ABL1, sequence (P00519 whole entry, species assumed): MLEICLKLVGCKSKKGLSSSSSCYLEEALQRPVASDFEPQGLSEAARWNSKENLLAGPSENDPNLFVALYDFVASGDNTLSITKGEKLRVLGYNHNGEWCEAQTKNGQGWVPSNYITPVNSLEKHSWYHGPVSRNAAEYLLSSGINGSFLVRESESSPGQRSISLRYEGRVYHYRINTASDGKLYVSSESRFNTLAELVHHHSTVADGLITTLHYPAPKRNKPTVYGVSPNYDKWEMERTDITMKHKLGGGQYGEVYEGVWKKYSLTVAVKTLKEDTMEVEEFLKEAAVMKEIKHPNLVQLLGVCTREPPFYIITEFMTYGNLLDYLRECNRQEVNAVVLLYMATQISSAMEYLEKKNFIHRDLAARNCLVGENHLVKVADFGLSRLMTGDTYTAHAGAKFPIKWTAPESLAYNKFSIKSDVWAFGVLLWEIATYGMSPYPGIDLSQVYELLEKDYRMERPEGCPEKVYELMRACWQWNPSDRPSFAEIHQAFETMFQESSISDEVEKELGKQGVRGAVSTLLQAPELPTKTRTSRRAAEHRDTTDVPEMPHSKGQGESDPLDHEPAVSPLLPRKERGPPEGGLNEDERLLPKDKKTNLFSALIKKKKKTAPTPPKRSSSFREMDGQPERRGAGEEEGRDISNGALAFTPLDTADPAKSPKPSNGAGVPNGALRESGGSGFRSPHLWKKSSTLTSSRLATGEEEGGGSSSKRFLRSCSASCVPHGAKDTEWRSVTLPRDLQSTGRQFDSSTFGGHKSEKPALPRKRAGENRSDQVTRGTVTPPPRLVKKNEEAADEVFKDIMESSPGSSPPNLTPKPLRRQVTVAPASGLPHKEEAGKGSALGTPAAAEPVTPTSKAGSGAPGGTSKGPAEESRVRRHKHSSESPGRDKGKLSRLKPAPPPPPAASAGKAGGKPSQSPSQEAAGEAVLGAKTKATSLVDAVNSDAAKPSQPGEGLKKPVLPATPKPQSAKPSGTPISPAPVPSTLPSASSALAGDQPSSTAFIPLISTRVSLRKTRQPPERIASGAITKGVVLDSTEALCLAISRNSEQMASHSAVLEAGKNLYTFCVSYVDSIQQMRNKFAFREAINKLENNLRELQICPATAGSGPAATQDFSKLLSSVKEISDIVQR
BTK, sequence (Q06187 whole entry, species assumed): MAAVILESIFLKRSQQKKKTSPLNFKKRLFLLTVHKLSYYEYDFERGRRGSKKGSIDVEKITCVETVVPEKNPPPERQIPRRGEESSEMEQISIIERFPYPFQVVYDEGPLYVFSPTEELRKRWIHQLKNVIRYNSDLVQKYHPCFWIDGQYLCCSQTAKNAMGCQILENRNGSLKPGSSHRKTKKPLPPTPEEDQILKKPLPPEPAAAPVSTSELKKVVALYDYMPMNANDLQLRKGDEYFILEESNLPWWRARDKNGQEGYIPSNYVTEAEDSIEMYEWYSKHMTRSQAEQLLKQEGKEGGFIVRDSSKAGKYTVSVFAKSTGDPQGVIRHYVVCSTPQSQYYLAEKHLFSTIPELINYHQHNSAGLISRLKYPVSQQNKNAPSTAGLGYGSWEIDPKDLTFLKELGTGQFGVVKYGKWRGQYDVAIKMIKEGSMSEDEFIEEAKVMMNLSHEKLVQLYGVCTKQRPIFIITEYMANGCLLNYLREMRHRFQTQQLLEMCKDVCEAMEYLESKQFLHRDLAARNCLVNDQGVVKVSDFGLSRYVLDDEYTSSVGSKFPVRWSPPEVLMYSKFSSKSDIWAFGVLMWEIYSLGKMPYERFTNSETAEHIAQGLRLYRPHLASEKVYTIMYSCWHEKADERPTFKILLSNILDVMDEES

## Cc1oncc1C(=O)Nc1ccc2cnc(-c3cc(N4CCN(C)CC4)cc(C(F)(F)F)c3)nc2c1 [Compound 7d, 5-methyl-N-(2-(3-(4-methylpiperazin-1-yl)-5-(trifluoromethyl)phenyl)quinazolin-7-yl)isoxazole-4-carboxamide]
LYN
  inhibition at 10 µM: 20.5%
c-Src
  inhibition at 10 µM: 14.6%
FLT3 (F594_R595 ins EY)
  IC50: 495 nM
FLT3 (F594_R595 ins R)
  IC50: 524 nM
[1]
  IC50: 728 nM
FLT3 (D835Y)
  IC50: 228 nM
PKA
  inhibition at 10 µM: 2.5%
CAMKK1
  inhibition at 10 µM: 0%
FYN
  inhibition at 10 µM: 19%
FMS
  inhibition at 10 µM: 5.49%
BTK
  inhibition at 10 µM: 17.5%
FGFR3
  inhibition at 10 µM: 1%
P38a/MAPK14
  inhibition at 10 µM: 0%
ABL1
  inhibition at 10 µM: 6.46%
IGF1R
  inhibition at 10 µM: 0%
ALK
  inhibition at 10 µM: 17%
FLT1/VEGFR1
  inhibition at 10 µM: 5.23%
PLK1
  inhibition at 10 µM: 0%
JAK3
  inhibition at 10 µM: 0.8%
c-Kit
  % inhibition rate: did not exhibit inhibitory activity
c-Kit; read-out: % inhibition rate
  inhibition at 10 µM: 0%
AXL (R499C)
  inhibition at 10 µM: 10.1%
JNK3
  inhibition at 10 µM: 19.5%
FLT (ITD); read-out: FLT (ITD) IC50
  IC50: < 3000 nM
FLT (ITD); read-out: IC50 against FLT-ITD
  IC50: 301 nM
Aurora A
  inhibition at 10 µM: 20.1%
MEK1
  inhibition at 10 µM: 0%
